Legend:
Type in all cases: in vivo
Amaranthus retroflexus [1] = test: Pre-emergence herbicidal effect against AMARE; conditions: 1280 g/ha, visual score after 3 weeks, 100% = plants have died, 0% = like control plants
Excerpt: (§1) 1. Pre-emergence herbicidal effect and crop plant compatibility Seeds of monocotyledonous and dicotyledonous weed plants and crop plants are laid out in sandy loam soil in wood-fibre pots and covered with soil. The compounds of the invention, formulated in the form of wettable powders (WP) or as emulsion concentrates (EC), are then applied to the surface of the covering soil as aqueous suspension or emulsion at a water application rate equating to 600 to 800 L/ha with addition of 0.2% wetting agent. After the treatment, the pots are placed in a greenhouse and kept under good growth conditions for the trial plants. The damage to the test plants is scored visually after a test period of 3 weeks by comparison with untreated controls (herbicidal activity in percent (%): 100% activity=the plants have died, 0% activity=like control plants). [table]

Echinochloa crus-galli [2] = test: Post-emergence herbicidal effect against ECHCG; conditions: 1280 g/ha, visual score after about 3 weeks, 100% = plants have died, 0% = like control plants
Protocol: (§2) [table] 2. Post-emergence herbicidal effect and crop plant compatibility Seeds of monocotyledonous and dicotyledonous weed and crop plants are laid out in sandy loam soil in wood-fibre pots, covered with soil and cultivated in a greenhouse under good growth conditions. 2 to 3 weeks after sowing, the test plants are treated at the one-leaf stage. The compounds of the invention, formulated in the form of wettable powders (WP) or as emulsion concentrates (EC), are then sprayed onto the green parts of the plants as aqueous suspension or emulsion at a water application rate equating to 600 to 800 l/ha with addition of 0.2% wetting agent. After the test plants have been left to stand in the greenhouse under optimal growth conditions for about 3 weeks, the action of the preparations is assessed visually in comparison to untreated controls (herbicidal action in percent (%): 100% activity=the plants have died, 0% activity=like control plants).

Setaria viridis [3] = test: Post-emergence herbicidal effect against SETVI; conditions: 1280 g/ha, visual assessment about 3 weeks after treatment, 100% = plants have died, 0% = like control plants
Protocol: as §2

[4] = system: Tripleurospermum inodorum; test: Pre-emergence herbicidal effect against MATIN; conditions: 1280 g/ha, visual score after 3 weeks, 100% = plants have died, 0% = like control plants
Excerpt: as §1

Stellaria media [5] = test: Post-emergence herbicidal effect against STEME; conditions: 1280 g/ha, visual assessment about 3 weeks after treatment, 100% = plants have died, 0% = like control plants
Protocol: as §2

Bassia scoparia = test: Post-emergence herbicidal effect against KCHSC; conditions: 1280 g/ha, visual assessment about 3 weeks after treatment, 100% = plants have died, 0% = like control plants
Protocol: as §2

Amaranthus retroflexus [6] = test: Post-emergence herbicidal effect against AMARE; conditions: 1280 g/ha, visual assessment about 3 weeks after treatment, 100% = plants have died, 0% = like control plants
Protocol: as §2

Digitaria sanguinalis [7] = test: Post-emergence herbicidal effect against DIGSA; conditions: 1280 g/ha, visual score after about 3 weeks, 100% = plants have died, 0% = like control plants
Protocol: as §2

Veronica persica [8] = test: Pre-emergence herbicidal effect against VERPE; conditions: 1280 g/ha, visual score after 3 weeks, 100% = plants have died, 0% = like control plants
Excerpt: as §1

Alopecurus myosuroides [9] = test: Pre-emergence herbicidal effect against ALOMY; conditions: 1280 g/ha, visual score after 3 weeks, 100% = plants have died, 0% = like control plants
Excerpt: as §1

Abutylon threophrasti = test: Post-emergence herbicidal effect against ABUTH; conditions: 1280 g/ha, visual assessment about 3 weeks after treatment, 100% = plants have died, 0% = like control plants
Protocol: as §2

Digitaria sanguinalis [10] = test: Pre-emergence herbicidal effect against DIGSA; conditions: 1280 g/ha, visual score after 3 weeks, 100% = plants have died, 0% = like control plants
Excerpt: as §1

Lolium rigidum = test: Pre-emergence herbicidal effect against LOLRI; conditions: 1280 g/ha, visual score after 3 weeks, 100% = plants have died, 0% = like control plants
Excerpt: as §1

Poa annua [11] = test: Pre-emergence herbicidal effect against POAAN; conditions: 1280 g/ha, visual score after 3 weeks, 100% = plants have died, 0% = like control plants
Excerpt: as §1

[12] = system: Tripleurospermum inodorum; test: Post-emergence herbicidal effect against MATIN; conditions: 1280 g/ha, visual assessment about 3 weeks after treatment, 100% = plants have died, 0% = like control plants
Protocol: as §2

Poa annua [13] = test: Post-emergence herbicidal effect against POAAN; conditions: 1280 g/ha, visual assessment about 3 weeks after treatment, 100% = plants have died, 0% = like control plants
Protocol: as §2

Veronica persica [14] = test: Post-emergence herbicidal effect against VERPE; conditions: 1280 g/ha, visual assessment about 3 weeks after treatment, 100% = plants have died, 0% = like control plants
Protocol: as §2

Stellaria media [15] = test: Pre-emergence herbicidal effect against STEME; conditions: 1280 g/ha, visual score after 3 weeks, 100% = plants have died, 0% = like control plants
Excerpt: as §1

Alopecurus myosuroides [16] = test: Post-emergence herbicidal effect against ALOMY; conditions: 1280 g/ha, visual score after about 3 weeks, 100% = plants have died, 0% = like control plants
Protocol: as §2

Setaria viridis [17] = test: Pre-emergence herbicidal effect against SETVI; conditions: 1280 g/ha, visual score after 3 weeks, 100% = plants have died, 0% = like control plants
Excerpt: as §1

Echinochloa crus-galli [18] = test: Pre-emergence herbicidal effect against ECHCG; conditions: 1280 g/ha, visual score after 3 weeks, 100% = plants have died, 0% = like control plants
Excerpt: as §1

CCOC(=O)CSc1nn(-c2ccccc2F)c(-c2ccc(F)c(F)c2)c1Cl [Example I-001]
90%: Post-emergence action against SETVI (Setaria viridis [3]) | Pre-emergence action against MATIN [4] | Post-emergence action against KCHSC (Bassia scoparia) | Post-emergence action against AMARE (Amaranthus retroflexus [6]) | Post-emergence action against ABUTH (Abutylon threophrasti)
100%: Pre-emergence action against AMARE (Amaranthus retroflexus [1]) | Post-emergence action against ECHCG (Echinochloa crus-galli [2]) | Post-emergence action against STEME (Stellaria media [5]) | Post-emergence action against DIGSA (Digitaria sanguinalis [7]) | Pre-emergence action against VERPE (Veronica persica [8]) | Pre-emergence action against ALOMY (Alopecurus myosuroides [9]) | Pre-emergence action against DIGSA (Digitaria sanguinalis [10]) | Pre-emergence action against LOLRI (Lolium rigidum) | Pre-emergence action against POAAN (Poa annua [11]) | Post-emergence action against MATIN [12] | Post-emergence action against POAAN (Poa annua [13]) | Post-emergence action against VERPE (Veronica persica [14]) | Pre-emergence action against STEME (Stellaria media [15]) | Post-emergence action against ALOMY (Alopecurus myosuroides [16]) | Pre-emergence action against SETVI (Setaria viridis [17])

CCOC(=O)CSc1nn(-c2ccccc2F)c(-c2ccc(F)nc2)c1Br [II-001, Ethyl {[4-bromo-1-(2-fluorophenyl)-5-(6-fluoropyridin-3-yl)-1H-pyrazol-3-yl]sulfanyl}acetate]
100%: Pre-emergence action against AMARE (Amaranthus retroflexus [1]) | Post-emergence action against ECHCG (Echinochloa crus-galli [2]) | Pre-emergence action against MATIN [4] | Post-emergence action against AMARE (Amaranthus retroflexus [6]) | Post-emergence action against DIGSA (Digitaria sanguinalis [7]) | Pre-emergence action against VERPE (Veronica persica [8]) | Pre-emergence action against ALOMY (Alopecurus myosuroides [9]) | Pre-emergence action against ECHCG (Echinochloa crus-galli [18]) | Pre-emergence action against DIGSA (Digitaria sanguinalis [10]) | Pre-emergence action against LOLRI (Lolium rigidum) | Pre-emergence action against POAAN (Poa annua [11]) | Post-emergence action against MATIN [12] | Post-emergence action against POAAN (Poa annua [13]) | Post-emergence action against ALOMY (Alopecurus myosuroides [16]) | Pre-emergence action against SETVI (Setaria viridis [17])
90%: Post-emergence action against SETVI (Setaria viridis [3]) | Post-emergence action against STEME (Stellaria media [5]) | Post-emergence action against ABUTH (Abutylon threophrasti) | Post-emergence action against VERPE (Veronica persica [14]) | Pre-emergence action against STEME (Stellaria media [15])

CCOC(=O)CSc1nn(-c2ccccc2F)c(-c2ccc(F)c(F)c2)c1Br [Example I-002, Ethyl {[4-bromo-5-(3,4-difluorophenyl)-1-(2-fluorophenyl)-1H-pyrazol-3-yl]sulfanyl}acetate]
100%: Pre-emergence action against AMARE (Amaranthus retroflexus [1]) | Post-emergence action against SETVI (Setaria viridis [3]) | Pre-emergence action against MATIN [4] | Post-emergence action against STEME (Stellaria media [5]) | Post-emergence action against DIGSA (Digitaria sanguinalis [7]) | Pre-emergence action against VERPE (Veronica persica [8]) | Pre-emergence action against LOLRI (Lolium rigidum) | Pre-emergence action against POAAN (Poa annua [11]) | Post-emergence action against MATIN [12] | Pre-emergence action against STEME (Stellaria media [15]) | Post-emergence action against ALOMY (Alopecurus myosuroides [16]) | Pre-emergence action against SETVI (Setaria viridis [17])
90%: Post-emergence action against AMARE (Amaranthus retroflexus [6]) | Pre-emergence action against ALOMY (Alopecurus myosuroides [9]) | Post-emergence action against ABUTH (Abutylon threophrasti) | Pre-emergence action against DIGSA (Digitaria sanguinalis [10]) | Post-emergence action against VERPE (Veronica persica [14])

CCOC(=O)C[S+]([O-])c1nn(-c2cccc(F)c2F)c(-c2ccccc2)c1Br (centres unmarked) [Example I-010]
90%: Post-emergence action against STEME (Stellaria media [5]) | Post-emergence action against KCHSC (Bassia scoparia) | Post-emergence action against AMARE (Amaranthus retroflexus [6]) | Post-emergence action against DIGSA (Digitaria sanguinalis [7]) | Post-emergence action against ABUTH (Abutylon threophrasti) | Post-emergence action against VERPE (Veronica persica [14])
100%: Pre-emergence action against AMARE (Amaranthus retroflexus [1]) | Post-emergence action against ECHCG (Echinochloa crus-galli [2]) | Pre-emergence action against MATIN [4] | Pre-emergence action against VERPE (Veronica persica [8]) | Pre-emergence action against ALOMY (Alopecurus myosuroides [9]) | Pre-emergence action against ECHCG (Echinochloa crus-galli [18]) | Pre-emergence action against DIGSA (Digitaria sanguinalis [10]) | Pre-emergence action against LOLRI (Lolium rigidum) | Pre-emergence action against POAAN (Poa annua [11]) | Post-emergence action against MATIN [12] | Post-emergence action against POAAN (Poa annua [13]) | Pre-emergence action against STEME (Stellaria media [15]) | Post-emergence action against ALOMY (Alopecurus myosuroides [16]) | Pre-emergence action against SETVI (Setaria viridis [17])

Source: US20230126893A1, “[(1,4,5-TRISUBSTITUTED-1H-PYRAZOL-3-YL)SULFANYL]ACETIC ACID DERIVATIVES, SALTS THEREOF, AND USE THEREOF AS ACTIVE HERBICIDAL INGREDIENTS” (BAYER AKTIENGESELLSCHAFT, priority 2020, published 2023)
